# Measurements taken from patent EP0427518B1, “NMDA-Blocking compounds, pharmaceutical compositions, their preparation and use” (priority 1989, dated 1991).
# Assays:
# [1] = test system: Sabra mice; assay: Induction of stereotypy (stereotypy gradient of Feigenbaum et al.); assay type: in vivo; conditions: for induction of stereotypy, locomotor hyperactivity and tachycardia: at about 25 mg/kg body weight, summary statement covering stereotypy, locomotor and heart rate tests, mice; for Stereotypy Gradient: HU-211 2.5 mg/kg s.c., mean ±SEM
# Excerpt: (§1) As will be shown hereafter, the pharmacological profile of HU-211, and other compounds constituting the active ingredients of the present compositions, includes the induction of stereotypy, locomotor hyper-activity and tachycardia in mice (Table 1). […] This possibility was explored by examining the activity of the compounds in protecting against the tremorogenic, convulsive and lethal effects of NMDA and NMDA agonists in mice. Such effects are counteracted by virtually all NMDA antagonists.
# [2] = test system: C-57 Black mice; assay: Inhibition of tremorogenic, convulsive and lethal effects of NMDA in C-57 Black mice; assay type: in vivo; conditions: for mice in which the tremorogenic, convulsive and lethal effects were prevented: dose 5 mk/kg, NMDA 100 mg/kg; for blockade of NMDA-induced tremor, seizure and lethality: at about 2.5 mg/kg body weight, summary statement, mouse strain not given
# Method: (§2) Sabra mice (an Israeli heterogenous strain) were pretreated with either vehicle alone (control) or HU-211 (1.25 or 2.50 mg/kg; s.c.), followed by NMDA (200 mg/kg; s.c.). […] Similar experiments were performed using C-57 Black mice, in which the dose of NMDA was decreased (100 mg/kg; s.c.). Counteraction by HU-211 of the NMDA-induced effects was more pronounced in the latter strain (which is more sensitive than Sabra mice to the effects of NMDA). In the control series of both strains, which received NMDA without HU-211, all animals died in less than 10 min. following seizure onset.
# The experiments described in Table 2 were repeated with C-57 Black mice, HU-211 replaced by the compound of formula (II) (compound Vb, U.S. Patent No. 4,179,517) and the compound of formula (IIa)(compound XIb, ibid.). NMDA (100 mg/kg) was administered to the mice.
# In addition, the experiments were repeated with the novel compound HU-247.
# [3] = cited from earlier work
# [4] = test system: Sabra mice; assay: Locomotor activity (body displacement over 7-cm squares); assay type: in vivo; conditions: HU-211 2.5 mg/kg s.c., mean ±SEM
# Excerpt: as §1
# [5] = test system: Sabra mice; assay: Inhibition of tremorogenic, convulsive and lethal effects of NMDA in Sabra mice; assay type: in vivo
# Method: as §2
# [6] = test system: BALB/C mice; assay: Protection against strychnine toxicity; assay type: in vivo; conditions: Strychnine 1 mg/kg s.c.; vehicle Emulphor; HU-211 10 mg/kg; 75 min post HU-211
# Method: (§3) BALB/C mice (20 g) were subcutaneously injected with picrotoxin, strychnine and NMDA in doses of about LD₉₀ and subsequent clinical observations for the occurrence of convulsions and death were carried out within 20 min. The number of mice used and the mortality were assessed at the highest doses administered.
# [7] = test system: BALB/C mice; assay: Protection against picrotoxin toxicity; assay type: in vivo; conditions: Picrotoxin 4 mg/kg s.c.; vehicle Emulsion; HU-211 10 mg/kg; 120 min post HU-211
# Method: as §3
# [8] = test system: BALB/C mice; assay: Protection against NMDA toxicity; assay type: in vivo; conditions: for % alive / No.alive total / Onset time of clinical signs: NMDA 125 mg/kg s.c., 120 min post HU-211
# Method: as §3
# [9] = test system: NMDA receptor; assay: Kinetics of basal and glutamate/glycine-induced [³H]TCP binding to rat brain cortical membranes
# Method: Kinetic experiments were then performed in order to determine whether HU-211 exerts its behavioral effects by acting directly at the glutamate- or the glycine-binding sites of the NMDA receptor.
# Like the competitive NMDA antagonist aminophosphovalerate (AP-5), HU-211 reduces the glutamate/glycine potentiation of [³H]TCP binding.
# HU-211 reduces the rate of binding of [³H]TCP to the NMDA-receptor channel and the rate of dissociation of [³H]TCP-receptor complexes. • A) Time course of basal (without added agonist) and induced with 1 »M L-glutamate and 1 »M glycine) [³H]TCP binding to the NMDA receptor of rat brain cortical membranes. Data represent the basal binding determined in the absence (●) and in the presence (▲) of 10 »M HU-211, and the induced binding determined in the absence (o) and in the presence (△) of 10 »M HU-211. Binding of [³H]TCP to well-washed control membranes was determined under the following conditions: membranes (80 »g protein) were incubated at 25°C in 200 »l HEPES buffer, pH 7.4, containing 5 nM [³H]TCP (total binding) or 5 nM [³H]TCP and 100 »M PCP (phencyclidine) (nonspecific binding), and the reactions were terminated at the indicated times by rapid filtration over polyethyleneimine-treated GF/C filters. The filters were counted in scintillation liquid (Hydroluma, Lumac Inc., Netherlands). HU-211 was prepared as described elsewhere [Mechoulam, R., et al., Tetrahedron:Asymmetry, 1:315-319 (1990)]. Means values (triplicates) of the specific binding of [³H]TCP (total minus non-specific binding) are plotted as a function of the incubation time. The data shown are from one of three experiments that gave similar results. • (B-C) First-order plots of the basal (B) and the induced (C) dissociation of [³H]TCP-receptor complexes. Data represent the basal (without added agonist) dissociation rates determined in the absence (●) and in the presence (▲) of 10 »M HU-211; the induced (with 1 »M L-glutamate and 1 »M glycine) dissociation rates were determined in the absence (o) and in the presence (△) of 10 »M HU-211. Samples were preincubated as described for Figure 2A, at 25°C with 18 nM [³H]TCP for 2 h. Basal dissociation reactions were initiated by the addition of 100 »M unlabeled PCP with or without 10 »M HU-211. For the induced dissociation reactions 1 »M glutamate and 1 »M glycine were also added. Reactions were terminated either immediately (zero time) or at the indicated times. Beq, amount of [³H]TCP bound at zero time. Bt, amount of [³H]TCP boud at time t. […]
# Data represent the concentration-dependent decrease of [³H]TCP binding by HU-211 (o) and by its isomer HU-210 (△). Binding of [³H]TCP (5 nM) was determined as described for Figure 2A, either in the absence (basal) or in the presence (induced) of 1 »M glutamate (A) or of 1 »M glycine (B).
# Reactions were terminated after 10 min. Data are expressed as induced over basal binding as a function of isomer concentrations. […]
# Non-competitive inhibition of glutamate- or glycine-induced [³H]TCP binding by HU-211. Induced [³H]TCP binding, corresponding to the ratio of binding in the presence of glutamate or glycine to binding in their absence, was determined with 5 nM [³H]TCP at 25°C for 10 min. Binding of (³H)TCP to well-washed rat cortical membranes was determined in triplicate, as described previously [Kloog, Y., et al., Biochemistry, 27: 843-848 (1988)], in the absence (basal) and presence of various concentrations of L-glutamate (a) or glycine (b) with and without HU-211, as indicated. […]
# [10] = test system: Sabra mice; assay: Induction of tachycardia (heart rate); assay type: in vivo; conditions: HU-211 2.5 mg/kg s.c., mean ±SEM
# Excerpt: as §1
# [11] = test system: NMDA receptor; assay: Equilibrium binding of [³H]TCP to well-washed rat brain cortical membranes
# [12] = Sabra mice, HU-211 2.5 mg/kg s.c. 75 min prior to NMDA 200 mg/kg s.c.
# [13] = C-57 Black mice, HU-211 1.25 mg/kg s.c. 75 min prior to NMDA 100 mg/kg s.c.
# [14] = C-57 Black mice, HU-211 2.50 mg/kg s.c. 75 min prior to NMDA 100 mg/kg s.c.
# [15] = vehicle Emulphor, HU-211 5 mg/kg
# [16] = vehicle Emulsion, HU-211 5 mg/kg
# [17] = vehicle Emulsion, HU-211 10 mg/kg
structure (smiles),measurement,setting,value
CCCCCCC(C)(C)c1cc(O)c2c(c1)OC(C)(C)[C@H]1CC=C(C)C[C@H]21 [II],"induction of stereotypy, locomotor hyperactivity and tachycardia",[1],"induce stereotypy, locomotor hyperactivity and tachycardia"
same,"mice in which the tremorogenic, convulsive and lethal effects were prevented",[2]; C-57 Black mice,4 out of 6
same,"blockade of NMDA-induced tremor, seizure and lethality",[2],potent blockers
"CCCCCCC(C)(C)c1cc(O)c2c(c1)OC(C)(C)[C@@H]1CC=C(CO)C[C@@H]21 [HU-210, 7-hydroxy-Δ⁶-tetrahydrocannabionol 1,1-dimethylheptyl homolog, reference compound]",cannabimimetic activity relative to Δ-1-tetrahydrocannabionol,[3]; more active than Δ-1-tetrahydrocannabionol,~100 times
CCCCCCC(C)(C)c1cc(O)c2c(c1)OC(C)(C)[C@H]1CCC(C)=C[C@H]21 [IIa],"induction of stereotypy, locomotor hyperactivity and tachycardia",[1],"induce stereotypy, locomotor hyperactivity and tachycardia"
same,"mice in which the tremorogenic, convulsive and lethal effects were prevented",[2]; C-57 Black mice,4 out of 6
same,"blockade of NMDA-induced tremor, seizure and lethality",[2],potent blockers
"CCCCCCC(C)(C)c1cc(O)c2c(c1)OC(C)(C)[C@H]1CC=C(CO)C[C@H]21 [HU-211, (+)-(3S,4S)-1,1-dimethylheptyl homolog of 7-hydroxy-Δ⁶-tetrahydrocannabinol]",Locomotor Activity,"[4]; time 0 min, score = squares crossed",32.0±6.0
same,Locomotor Activity,[4]; time 15 min,45.0±2.0
same,Locomotor Activity,[4]; time 30 min,37.0±4.04
same,Locomotor Activity,[4]; time 45 min,28.0±13.0
same,Locomotor Activity,[4]; time 60 min,17.0±7
same,mice that exhibited no tremors or seizures and stayed alive for more than four days following NMDA administration,"[5]; Sabra mice pretreated with HU-211 (2.5 mg/kg s.c.), NMDA 200 mg/kg s.c.",two of the five
same,Time until death,[5]; [12],20.2 ± 7.0 min
same,Time until first seizure,[5]; [12],18.0 ± 7.0 min
same,Time until first tremor,[5]; [12],8.2 ± 1.3 min
same,Stereotypy Gradient,[1]; time 0 min,0.4±0.1
same,Stereotypy Gradient,[1]; time 15 min,1.3±0.2
same,Stereotypy Gradient,[1]; time 30 min,2.2±0.1
same,Stereotypy Gradient,[1]; time 45 min,0.7±0.2
same,Stereotypy Gradient,[1]; time 60 min,0.6±0.3
same,"induction of stereotypy, locomotor hyperactivity and tachycardia",[1],"induce stereotypy, locomotor hyperactivity and tachycardia"
same,mice that exhibited no tremors or seizures and stayed alive for more than four days following NMDA administration,"[2]; C-57 Black mice pretreated with HU-211 (2.50 mg/kg s.c.), NMDA 100 mg/kg s.c.",six of the seven
same,Time until death,[2]; [13],18.6 ± 4.2 min
same,Time until first seizure,[2]; [13],13.2 ± 2.6 min
same,Time until first tremor,[2]; [13],12.0 ± 2.6 min
same,Time until death,[2]; [14],>5800 min
same,Time until first seizure,[2]; [14],5800 min
same,Time until first tremor,[2]; [14],>5800 min
same,persistence of the anti-NMDA effects,"[2]; C-57 Black mice, repeated NMDA 100 mg/kg one day later in the six surviving mice, preliminary results",more than 24 h
same,"blockade of NMDA-induced tremor, seizure and lethality",[2],potent blockers
same,% alive,[6],80%
same,No.alive total,[6],8/10
same,% alive,[7],50%
same,No.alive total,[7],4/8
same,Onset time of clinical signs,[7],54 min
same,"protection against NMDA toxicity, Emulsion compared with Emulphor preparation",[8]; HU-211 carried in the Emulsion versus the Emulphor preparation,better protection
same,% alive,[8]; [15],20%
same,No.alive total,[8]; [15],2/10
same,Onset time of clinical signs,[8]; [15],19 min
same,% alive,[8]; [16],60%
same,No.alive total,[8]; [16],4/7
same,Onset time of clinical signs,[8]; [16],7 min
same,% alive,[8]; [17],80%
same,No.alive total,[8]; [17],8/10
same,Onset time of clinical signs,[8]; [17],10 min
same,cannabimimetic activity,[3]; even at doses several thousand times higher than ED₅₀ of HU-210,inactive
same,dissociation rate of [³H]TCP from the NMDA receptor,"[9]; 10 »M HU-211, both in absence and presence of 1 »M glutamate and 1 »M glycine, much more strongly in their presence",decreased the dissociation rate
same,inhibition of the induced [³H]TCP binding compared with the (-)enantiomer HU-210,"[9]; Figure 3, stereospecificity",far more potent inhibitor
same,efficacy of glutamate- or glycine-induced [³H]TCP binding,"[9]; HU-211 10 and 5 »M, apparent affinities of glutamate and glycine not altered",reduced the efficacy
same,rate of association of [³H]TCP binding to the NMDA receptor,"[9]; basal (no added agonist), 10 »M HU-211",only a small decrease
same,association rate of [³H]TCP binding,"[9]; induced: 1 »M glutamate and 1 »M glycine, 10 »M HU-211",marked decrease
same,Heart Rate,[10]; time 0 min,169.2±2.5 per min
same,Heart Rate,[10]; time 75 min,186.8±2.5 per min
same,equilibrium binding of 5 nM [³H]TCP,[11]; 100 »M HU-211,not inhibited
same,maximum binding capacity of [3H]TCP,"[11]; in the presence of HU-211 10 »M, 2-100 nM [³H]TCP, 1 »M glutamate and 1 »M glycine (control 3.4)",3.5 pmol/mg protein
CCCCCCC(C)(C)c1cc(OC(C)=O)c2c(c1)OC(C)(C)[C@H]1CC=C(CO)C[C@H]21 [HU-247],"mice in which the tremorogenic, convulsive and lethal effects of NMDA were fully prevented","[2]; C-57 Black mice, dose 2.5 mg/kg, same conditions as Table 2",6 out of 7
